Values of other authors as cited in PMC4761099 (British Journal of Pharmacology, 2016).

System: Ob/ob mice
Conditions: leptin mutant mice, acute setting; ref Kerr et al., 2011

Substance: GIP(8-42): literature GIP fragment (Kerr et al., 2011) (SDYSIAMDKIHQQDFVNWLLAQKGKKNDWKHNITQ; Gastric inhibitory polypeptide; UniProt P09681 59-93, looked up, fragment)
- antagonism of GIP(1–42) in vivo, in words: decreased insulin secretion and increased plasma glucose
